Experiment: Removal (oxidation) of Carbamazepine (CBZ) by ferrate with or without amino acids, HPLC
Conditions: [ferrate]=100.0 μM
Description: (Experimental conditions: [CBZ]=5.0 μM, [ferrate]=100.0 μM, [amino acid]=100.0 μM, pH 9.0 (10.0 mM borate buffer), reaction time=1 min).
After certain reaction time, a 20.0 μL NH2OH solution (1 M, [NH2OH]: [ferrate]=10.0) was added to quench the reactions. Samples were transferred into high performance liquid chromatography (HPLC) vials and subsequently analyzed using the HPLC method. Each treatment was performed with triplicates and the mean removal values were reported.
Preliminary experiments were conducted to see the influence of amino acids (100.0 μM) on removal of CBZ (5.0 μM) by ferrate (100.0 μM) at pH 9.0 (10.0 mM borate buffer) after 1 min of oxidation. In these experiments, the solution of selected amino acids (FIG. 1) was mixed with CBZ, followed by addition of ferrate.

Compound: [O]=[Fe](=[O])([O-])[O-] [ferrate]
- removal of CBZ (ferrate only (without proline), [CBZ]=5.0 μM, pH 9.0 (10.0 mM borate buffer), 80 min): 70%

Compound: O=C(O)[C@@H]1CCCN1 [proline]
- oxidation of CBZ (molar ratio of proline to ferrate 1.0, within 90 s, pH 9.0): 100%

— patent publication US12635693B2, “Activated ferrate compositions and methods” (THE TEXAS A&M UNIVERSITY SYSTEM, priority 2020, dated 2026)
